Article PMC2195891 (2006)

System: human telomeric quadruplex (Htelo), 5'-biotin SPR strand (DNA, G4) GTTAGGGTTAGGGTTAGGGTTAGGGTTAGG
Assay: SPR, equilibrium response
Details: K+ 100 mM (KCl), 50 mM Tris-HCl pH 7.4

| SMILES | KD (up to 6.25 μM) [µM] | KD (up to 25 μM) [µM] |
| --- | --- | --- |
| C[n+]1ccc(-c2c3nc(c(-c4cc[n+](C)cc4)c4ccc([nH]4)c(-c4cc[n+](C)cc4)c4nc(c(-c5cc[n+](C)cc5)c5ccc2[nH]5)C=C4)C=C3)cc1 | 0.63 ± 0.08 |  |
| C[n+]1ccc(-c2c3nc(c(-c4cc[n+](C)cc4)c4ccc(cc5nc(cc6ccc2[nH]6)C=C5)[nH]4)C=C3)cc1 |  | 18.90 ± 2.80 |
| C[n+]1ccc(-c2c3nc(cc4ccc([nH]4)c(-c4cc[n+](C)cc4)c4nc(cc5ccc2[nH]5)C=C4)C=C3)cc1 | 0.83 ± 0.10 |  |
| C[n+]1ccc(-c2c3nc(c(-c4cc[n+](C)cc4)c4ccc([nH]4)c(-c4cc[n+](C)cc4)c4nc(cc5ccc2[nH]5)C=C4)C=C3)cc1 |  | 5.88 ± 0.90 |
